Laboratory results taken from patent US20030176494A1, “Novel coumarin and chromene compounds and methods of preparation and use thereof for treating or preventing viral infections” (priority 2001, published 2003).
Converted amounts (≈) assume the structure as drawn. Where two headings read alike, the source gives them in different places.

Assays:
Rhinovirus = Rhinovirus antiviral assay (CPE inhibition, neutral red uptake, virus yield); format: cell-based; settings: Enterovirus
[1] = tested on: Respiratory Syncytial Virus; test: Respiratory syncytial virus antiviral assay (CPE inhibition, neutral red uptake); format: cell-based, Respiratory syncytial virus strain Utah 89; settings: human respiratory syncytial virus
EBV = EBV assay: superinfection of Raji or Daudi cells with P3HR-1, immunofluorescence for EA and VCA; format: cell-based, Epstein-Barr Virus (P3HR-1); settings: human gammaherpesvirus 4; read-out: Antiviral Activities (EC50) EBV
Excerpt: There are two prototypes of infectious EBV. One is exemplified by the virus derived from supernatant fluids of the P3HR-1cell line. This cell line produces nontransforming virus that causes the production of early antigen (EA) after primary infection or superinfection of B cell lines. The other prototype is exemplified by the B-95-8 virus. This virus immortalized cord blood lymphocytes and induced tumors in marmosets. […] The virus used in our assays is P3HR-1.
Ramos is an exceptional B cell line derived from Burkitt's lymphoma tumor but containing no detectable EBV genome copies and is EBNA negative. Ramos/AW was obtained by in vitro infection of Ramos with the P3HR-1 virus and contains one resident EBV genome copy/cell. Raji is a Burkitt's lymphoma cell line containing 60 EBV genomes/cell, and will be the primary cell used for screening antiviral activity against EBV EA expression. Daudi is a low level producer that contains 152 EBV genome copies/cell. It spontaneously expresses EBV EA in 0.25%-0.5% of the cells. It will be used in follow-up studies to confirm activity. These cell lines respond to superinfection by EBV by expressing EA(D), EA(R), and VCA. All cell lines are maintained in RPMI-1640 medium supplemented by 10% FCS, L-glutamine and 100 μg/mL gentamicin. The cultures are fed twice weekly and the cell concentration adjusted to 3×10^5/mL. The cells are kept at 37° C. in a humidified atmosphere with 5% CO2.
Cells are infected with the P3HR-1 strain of EBV and the drugs to be tested are added after adsorption (45 minutes at 37° C.) and washing of the cell cultures. The cultures are incubated for two days in complete medium to allow viral gene expression. Following the 48 hr incubation period, the number of cells of each sample are counted and smears made. Monoclonal antibodies to the different EA components and VCA are then added to the cells incubated and washed. This is followed by a fluorescein conjugated rabbit anti-mouse Ig antibody; and the number of fluorescence positive cells in the smears are counted. The total number of cells in the cultures positive for EA or VCA are then calculated and compared.

HIV = test: Anti-HIV evaluation by MTT-tetrazolium method (inhibition of CPE in MT-2 / CEM-SS cells); format: cell-based; settings: Human immunodeficiency virus 1, CEM-SS; read-out: Antiviral Activities (EC50) HIV
Method: This example illustrates the anti-HIV activity of various coumarin and chromene compounds which were evaluated using the published MTT-tetrazolium methods^8. Retroviral agents AZT and DDC were used as controls for comparison purposes.
The cells used for screening were the MT-2 and the human T4-lymphoblastoid cell line, CEM-SS, and were grown in RPMI 1640 medium supplemented with 10% fetal (v/v) heat-inactivated fetal calf serum and also containing 100 units/mL penicillin, 100 μg/mL streptomycin, 25 mM HEPES and 20 μg/mL gentamicin. The medium used for dilution of drugs and maintenance of cultures during the assay was the same as above. The HTLV-IIIB and HTLV-RF were propagated in CEM-SS. The appropriate amounts of the pure compounds for anti-HIV evaluations were dissolved in DMSO, then diluted in medium to the desired initial concentration. The concentrations (M medium) employed were […]; 0.001 μM; 0.0032 μM; 0.01 μM; 0.032 μM; 0.1 μM; 0.32 μM; 1 μM; 3.2 μM; 10 μM; 32 μM; and 100 μM. Each dilution was added to plates in the amount of 100 μL/well. Drugs were tested in triplicate wells per dilution with infected cells while in duplicate wells per dilution with uninfected cells for evaluation of cytotoxicity. On day 6 (CEM-SS cells) and day 7 (MT-2 cells) post-infection, the viable cells were measured with a tetrazolium salt, MTT (5 mg/mL), added to the test plates. A solution of 20% SDS in 0.001 N HCl is used to dissolve the MTT formazan produced. The optical density value was a function of the amount of formazan produced which was proportional to the number of viable cells. The percent inhibition of CPE per drug concentration was measured as a test over control and expressed in percent (T/C %).

HBV = HBV replication in cultures of 2.2.15 cells (HBV DNA blot hybridization); format: cell-based
Method: Test compounds are then added daily for a continuous 9 day period. Culture medium (changed daily during the treatment period) is collected and stored for analysis of extracellular (virion) HBV DNA after 0, 3, 6, and 9 days of treatment. Treated cells are lysed 24 hours following day 9 of treatment for the analysis of intracellular HBV genomic forms. HBV DVA is then analyzed in a quantitative and qualitative manner for overall levels of HBV DNA (both extracellular and intracellular DNA) and the relative rate of HBV replication (intracellular DNA).
Both intracellular and extracellular HBV DNA are analyzed in order to (i) allow for verification of compound efficacy and (ii) provide possible data on the target site in the HBV replication pathway for the compound from examination of the pattern of viral replicative forms. The culture medium is changed daily during the treatment period to (i) prevent the buildup of potentially toxic metabolites derived from test compounds and (ii) provide an analysis of HBV virion production during discrete 24-hour intervals which enables a quantitative comparison of any effect on virion production.
The analysis of HBV DNA is performed using blot hybridization techniques (Southern and slot blot) and [^32P]-labeled HBV-specific probes. HBV DNA levels are measured by comparison to known amounts of HBV DNA standards applied to every nitrocellulose membrane (gel or slot blot). An AMBIS beta scanner, which measures the radioactive decay of the hybridized probes directly from the nitrocellulose membranes, is used for the quantitative analysis. Standard curves, generated by multiple analyses, are used to correlate CPM measurements made by the beta scanner with relative levels of target HBV DNA. The levels of HBV virion DNA released into the culture medium are analyzed by a slot blot hybridization procedure. HBV DNA levels are then compared to those at Day 0 to determine the effect of drug treatment.
The levels of RI and episomal monomers are used as an indicator of the relative level of HBV replication. Integrated HBV DNA is used to normalize the relative amounts of DNA in each lane because the levels of this class of HBV DNA would be expected to remain constant on a per cell basis. […] Inhibition of HBV DNA replication is indicated by the loss of RI without changes in the level of integrated HBV DNA.

VZV = VZV plaque reduction assay in human foreskin fibroblast cells; format: cell-based, Varicella Zoster Virus (Ellen strain); settings: Human alphaherpesvirus 3, Fibroblast; read-out: Antiviral Activities (EC50) VZV
Method: [table] Two days prior to use, HFF cells are plated into six-well plates and incubated at 37° C. with 5% CO2 and 90% humidity. On the date of assay, the drug is made up at twice the desired concentration in 2×MEM and then serially diluted 1:5 in 2×MEM using six concentrations of drug. […] The media is then aspirated from the wells and 0.2 mL of virus is added to each well in duplicate with 0.2 mL of media being added to drug toxicity wells. The plates are then incubated for one hour with shaking every fifteen minutes. […] The drug agarose mixture is applied to each well in 2 mL volume and the plates then incubated for three days, after which the cells were stained with a 1.5% solution of neutral red. At the end of 4-6 hr incubation period, the stain is aspirated, and plaques counted using a stereomicroscope at 10× magnification. The procedure is essentially the same as for the HSV plaque assay described above with two exceptions: 1. After addition of the drug, the plates are incubated for ten days. 2.

Measles Virus = test: Measles virus antiviral assay (CPE inhibition, neutral red uptake, virus yield); format: cell-based, Measles virus strain CC; settings: Measles morbillivirus
[2] = CPE inhibition, read-out: Antiviral Activities (EC50) Rhinovirus (CPE)
[3] = neutral red (NR) dye uptake, read-out: Antiviral Activities (EC50) Rhinovirus (NR)
[4] = CPE inhibition, read-out: Antiviral Activities (EC50) Respiratory Syncitial (CPE)
[5] = neutral red (NR) dye uptake, read-out: Antiviral Activities (EC50) Respiratory Syncitial (NR)
[6] = Hepatitis B virus; read-out: Antiviral Activities (EC50) HBV
[7] = CPE inhibition, read-out: Antiviral Activities (EC50) Measles (CPE)
[8] = neutral red (NR) dye uptake, read-out: Antiviral Activities (EC50) Measles (NR)
[9] = readout not stated, read-out: Antiviral Activities (EC50) Rhinovirus
[10] = readout not stated, read-out: Antiviral Activities (EC50) Respiratory Syncitial

Row | Structure (SMILES) | EC50 (Rhinovirus; [2]) | EC50 (Rhinovirus; [3]) | EC50 [1, 4] | EC50 [1, 5] | EC50 (EBV) | EC50 (HIV) | EC50 (HBV; [6]) | EC50 (VZV) | EC50 (Measles Virus; [7]) | EC50 (Measles Virus; [8]) | EC50 (HBV; Hepatitis B virus, read-out: Antiviral Activities (EC50) HBV) | EC50 (Measles Virus; read-out: Antiviral Activities (EC50) Measles (virus yield)) | EC50 (Rhinovirus; [9]) | EC50 [1, 10] | EC50 (Measles Virus; readout not stated, read-out: Antiviral Activities (EC50) Measles)
1 | CCCc1cc(=O)oc2c3c(c4c(c12)OC(C)(C)[C@H](O)[C@H]4O)O[C@H](C)[C@@H](C)[C@@H]3O | 20 µg/mL (≈ 49.4 µM) | 50 µg/mL (≈ 124 µM) | > 100 µg/mL | 100 µg/mL (≈ 247 µM) | > 50 µg/mL | > 2.5 µg/mL | > 4 µg/mL | > 100 µg/mL | 10 µg/mL (≈ 24.7 µM) | 100 µg/mL (≈ 247 µM) | – | – | – | – | –
2 | CCCc1cc(=O)oc2cc(OS(=O)(=O)c3ccc(C)cc3)cc(OS(=O)(=O)c3ccc(C)cc3)c12 | 2 µg/mL (≈ 3.78 µM) | 1 µg/mL (≈ 1.89 µM) | 2 µg/mL (≈ 3.78 µM) | 1 µg/mL (≈ 1.89 µM) | > 50 µg/mL | > 3 µg/mL | – | > 20 µg/mL | 3 µg/mL (≈ 5.68 µM) | 1 µg/mL (≈ 1.89 µM) | > 5 µg/mL | 3 µg/mL (≈ 5.68 µM) | – | – | –
3 | CCCc1cc(=O)oc2cc(OC(=O)C(C)(C)C)cc(OC(=O)C(C)(C)C)c12 | – | – | – | – | 3.7 µg/mL (≈ 9.52 µM) | 2.2 µg/mL (≈ 5.66 µM) | > 4 µg/mL | 5.6 µg/mL (≈ 14.4 µM) | 2 µg/mL (≈ 5.15 µM) | 3 µg/mL (≈ 7.72 µM) | – | – | 20 µg/mL (≈ 51.5 µM) | > 100 µg/mL | –
4 | CCCc1cc(=O)oc2cc(OCC(C)(C)C(=O)OC)c3c(c12)OC(C)(C)C=C3 | – | – | – | – | 0.08 µg/mL (≈ 0.2 µM) | 2 µg/mL (≈ 4.99 µM) | > 4 µg/mL | > 20 µg/mL | 40 µg/mL (≈ 99.9 µM) | 30 µg/mL (≈ 74.9 µM) | – | – | 25 µg/mL (≈ 62.4 µM) | > 100 µg/mL | –
5 | CCCc1cc(=O)oc2c3c(c4c(c12)OC(C)(C)C(O)C4O)O[C@H](C)[C@@H](C)[C@@H]3O (some centres unmarked) | 10 µg/mL (≈ 24.7 µM) | 10 µg/mL (≈ 24.7 µM) | > 100 µg/mL | > 100 µg/mL | 9.5 µg/mL (≈ 23.5 µM) | > 8 µg/mL | > 4 µg/mL | > 20 µg/mL | 10 µg/mL (≈ 24.7 µM) | 10 µg/mL (≈ 24.7 µM) | – | – | – | – | –
6 | CCC/C(=C/C(=O)OC)c1c(O)c2c(c3c1OC(C)(C)[C@H](O)[C@H]3O)O[C@H](C)[C@@H](C)[C@@H]2O | 20 µg/mL (≈ 45.8 µM) | 5 µg/mL (≈ 11.5 µM) | 100 µg/mL (≈ 229 µM) | > 100 µg/mL | > 50 µg/mL | > 2 µg/mL | > 4 µg/mL | > 20 µg/mL | 10 µg/mL (≈ 22.9 µM) | 20 µg/mL (≈ 45.8 µM) | – | – | – | – | –
7 | CCCc1cc(=O)oc2cc(OS(=O)(=O)c3ccc(C)cc3)c3c(c12)OC(C)(C)C=C3 | – | – | – | – | 0.2 µg/mL (≈ 0.454 µM) | 1.6 µg/mL (≈ 3.63 µM) | > 10 µg/mL | > 100 µg/mL | – | – | – | – | > 100 µg/mL | > 100 µg/mL | > 100 µg/mL
8 | CCCc1cc(=O)oc2c(C(=O)CC)c(O)c(C(=O)CC)c(O)c12 | – | – | 20 µg/mL (≈ 60.2 µM) | 10 µg/mL (≈ 30.1 µM) | 1.2 µg/mL (≈ 3.61 µM) | > 2 µg/mL | > 3 µg/mL | > 20 µg/mL | > 100 µg/mL | > 100 µg/mL | – | – | 0.39 µg/mL (≈ 1.17 µM) | – | –
9 | CCCc1cc(=O)oc2cc(OS(=O)(=O)c3ccc(C)cc3)cc(O)c12 | 1 µg/mL (≈ 2.67 µM) | 2 µg/mL (≈ 5.34 µM) | 3 µg/mL (≈ 8.01 µM) | 2 µg/mL (≈ 5.34 µM) | 2.1 µg/mL (≈ 5.61 µM) | > 2 µg/mL | 2.1 µg/mL (≈ 5.61 µM) | > 100 µg/mL | 1 µg/mL (≈ 2.67 µM) | 1 µg/mL (≈ 2.67 µM) | – | – | – | – | –
